Assay results taken from US10266526B2, “Substituted 1,2,3-triazoles as SMYD inhibitors for treating cancer” (EPIZYME, INC., priority 2014, dated 2019).

Molecular target: SMYD3 (Homo sapiens (Human), UniProt Q9H7B4)
Assay: SMYD3 biochemical assay (SMYD3 enzyme assay on MEKK2 protein substrate, 3H-SAM scintillation proximity assay)
Details: Table 1A; average of n = 1 to n = 50; read-out: SMYD3 Biochem IC50
How it was run: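 Detection used scintillation proximity beads to capture ³H-methylated GST-MEKK2 after quench with 100 uM final cold SAM. The reaction was started by SAM/MEKK2 addition after a 30 min RT compound–enzyme preincubation. Enzyme was tag-free full-length human SMYD3 from E. coli, in buffer of 25 mM Tris-Cl pH 8.0, 1 mM TCEP, 0.005% BSG, 0.005% Tween 20.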

Sequence of SMYD3 (Q9H7B4 whole entry): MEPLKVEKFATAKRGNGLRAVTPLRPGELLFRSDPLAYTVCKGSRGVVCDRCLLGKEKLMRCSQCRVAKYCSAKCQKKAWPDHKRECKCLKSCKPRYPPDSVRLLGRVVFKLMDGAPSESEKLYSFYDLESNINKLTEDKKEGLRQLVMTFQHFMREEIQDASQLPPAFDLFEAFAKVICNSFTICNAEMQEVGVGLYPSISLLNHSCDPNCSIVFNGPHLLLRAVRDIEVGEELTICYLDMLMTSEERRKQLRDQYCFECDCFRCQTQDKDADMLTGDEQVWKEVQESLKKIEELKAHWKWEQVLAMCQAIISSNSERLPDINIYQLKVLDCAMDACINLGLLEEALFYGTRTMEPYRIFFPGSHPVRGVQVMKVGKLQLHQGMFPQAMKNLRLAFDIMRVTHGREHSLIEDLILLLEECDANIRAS

IC50 | SMILES
> 50 µM | N[C@H]1CC[C@H](NC(=O)c2nc(I)n[nH]2)CC1 [compound 548, N-((1r,4r)-4-aminocyclohexyl)-3-iodo-1H-1,2,4-triazole-5-carboxamide]
> 50 µM | CCc1cnc(C(=O)N[C@H]2CC[C@H](N)CC2)s1 [compound 554, N-((1r,4r)-4-aminocyclohexyl)-5-ethylthiazole-2-carboxamide]
> 50 µM | NCCC(=O)N1CCC(NC(=O)c2nnc[nH]2)CC1 [compound 556, N-(1-(3-aminopropanoyl)piperidin-4-yl)-4H-1,2,4-triazole-3-carboxamide]
> 50 µM | N[C@H]1CC[C@H](C(=O)N[C@H]2CC[C@H](NC(=O)c3ncn[nH]3)CC2)CC1 [compound 539, N-((1R,4r)-4-((1r,4R)-4-aminocyclohexane-1-carboxamido)cyclohexyl)-1H-1,2,4-triazole-5-carboxamide]
> 10 µM | NCCC(=O)N[C@H]1CC[C@H](NC(=O)c2cc3cc(Br)ccc3nc2O)CC1 [compound 566, N-((1r,4r)-4-(3-aminopropanamido)cyclohexyl)-6-bromo-2-hydroxyquinoline-3-carboxamide]

Same assay, conditions: read-out: SMYD3 Biochem IC50

SMILES | IC50
Nc1ccnc2ccc(C(=O)N[C@H]3CC[C@H](N)CC3)cc12 [compound 211, 4-amino-N-((1r,4r)-4-aminocyclohexyl)quinoline-6-carboxamide] | 43.7 µM
Nc1ccncc1C(=O)N[C@H]1CC[C@H](N)CC1 [compound 289, 4-amino-N-((1r,4r)-4-aminocyclohexyl)nicotinamide] | > 100 µM
COc1cc(C(=O)N[C@H]2CC[C@H](NC(=O)CCN)CC2)c2ccccc2n1 [compound 222, N-((1r,4r)-4-(3-aminopropanamido)cyclohexyl)-2-methoxyquinoline-4-carboxamide] | > 100 µM
O=C1Cc2cc(C(=O)NC[C@@H]3CCNC3)ccc2N1 [compound 213, (R)-2-oxo-N-(pyrrolidin-3-ylmethyl)indoline-5-carboxamide] | 17.9 µM
CC(NC(=O)c1ccc(Cl)cc1C(F)(F)F)C1CCN(C(=O)[C@H](C)N)CC1 (stereo partly drawn) [compound 263, N-(1-(1-(L-alanyl)piperidin-4-yl)ethyl)-4-chloro-2-(trifluoromethyl)benzamide] | > 100 µM
CC(NC(=O)c1cc(O)c2ccccc2n1)C1CCN(C(=O)[C@H](C)N)CC1 (stereo partly drawn) [compound 225, N-(1-(1-(L-alanyl)piperidin-4-yl)ethyl)-4-hydroxyquinoline-2-carboxamide] | > 100 µM
CC(NC(=O)c1ccc2c(c1)no[n+]2[O-])C1CCN(C(=O)[C@H](C)N)CC1 (stereo partly drawn) [compound 236, 5-((1-(1-(L-alanyl)piperidin-4-yl)ethyl)carbamoyl)benzo[c][1,2,5]oxadiazole 1-oxide] | > 100 µM
CC(NC(=O)c1ccnc(O)c1)C1CCN(C(=O)[C@H](C)N)CC1 (stereo partly drawn) [compound 250, N-(1-(1-(L-alanyl)piperidin-4-yl)ethyl)-2-hydroxyisonicotinamide] | > 100 µM
N[C@H]1CC[C@H](NC(=O)c2ccc3c(c2)no[n+]3[O-])CC1 [compound 286, 5-(((1r,4r)-4-aminocyclohexyl)carbamoyl)benzo[c][1,2,5]oxadiazole 1-oxide] | > 100 µM

More lines, now with the values ahead:

IC50 | SMILES
> 100 µM | N[C@H]1CC[C@H](NC(=O)Cc2c[nH]c3cccnc23)CC1 [compound 408, N-((1r,4r)-4-aminocyclohexyl)-2-(1H-pyrrolo[3,2-b]pyridin-3-yl)acetamide]
> 100 µM | COc1cncc(C(=O)N[C@H]2CC[C@H](N)CC2)n1 [compound 356, N-((1r,4r)-4-aminocyclohexyl)-6-methoxypyrazine-2-carboxamide]
> 100 µM | COc1cccc(C(=O)N[C@H]2CC[C@H](N)CC2)n1 [compound 354, N-((1r,4r)-4-aminocyclohexyl)-6-methoxypicolinamide]
51.1 µM | CC(NC(=O)Cc1cccc(C(F)(F)F)c1)C1CCN(C(=O)[C@H](C)N)CC1 (stereo partly drawn) [compound 476, N-(1-(1-(L-alanyl)piperidin-4-yl)ethyl)-2-(3-(trifluoromethyl)phenyl)acetamide]
27.4 µM | Cc1cnc(C(=O)N[C@H]2CC[C@H](NC(=O)CCN)CC2)s1 [compound 397, N-((1r,4r)-4-(3-aminopropanamido)cyclohexyl)-5-methylthiazole-2-carboxamide]
50.7 µM | Cc1cncc(C(=O)N[C@H]2CC[C@H](N)CC2)c1 [compound 345, N-((1r,4r)-4-aminocyclohexyl)-5-methylnicotinamide]
> 100 µM | CC(NC(=O)c1nc2ccccc2s1)C1CCN(C(=O)[C@H](C)N)CC1 (stereo partly drawn) [compound 395, N-(1-(1-(L-alanyl)piperidin-4-yl)ethyl)benzo[d]thiazole-2-carboxamide]
5.02 µM | NCCC(=O)N[C@H]1CC[C@H](NC(=O)c2cc3cccc(O)c3cc2O)CC1 [compound 479, N-((1r,4r)-4-(3-aminopropanamido)cyclohexyl)-3,5-dihydroxy-2-naphthamide]
> 100 µM | CC(NC(=O)Cc1c[nH]c2cccnc12)C1CCN(C(=O)[C@H](C)N)CC1 (stereo partly drawn) [compound 406, N-(1-(1-(L-alanyl)piperidin-4-yl)ethyl)-2-(1H-pyrrolo[3,2-b]pyridin-3-yl)acetamide]
> 100 µM | NCCC(=O)N[C@H]1CC[C@H](NC(=O)c2cc3cc(F)ccc3[nH]2)CC1 [compound 335, N-((1r,4r)-4-(3-aminopropanamido)cyclohexyl)-5-fluoro-1H-indole-2-carboxamide]
1.59 µM | N[C@H]1CC[C@H](NC(=O)c2cc3c(cc2Cl)NC(=O)C3)CC1 [compound 492, N-((1r,4r)-4-aminocyclohexyl)-6-chloro-2-oxoindoline-5-carboxamide]
> 100 µM | Cn1ccc(C(=O)N[C@H]2CC[C@H](N)CC2)n1 [compound 350, N-((1r,4r)-4-aminocyclohexyl)-1-methyl-1H-pyrazole-3-carboxamide]
> 100 µM | COc1cccc2[nH]cc(C(=O)NC(C)C3CCN(C(=O)[C@H](C)N)CC3)c12 (stereo partly drawn) [compound 370, N-(1-(1-(L-alanyl)piperidin-4-yl)ethyl)-4-methoxy-1H-indole-3-carboxamide]
> 100 µM | COc1cnc(C(=O)N[C@H]2CC[C@H](NC(=O)CCN)CC2)cn1 [compound 383, N-((1r,4r)-4-(3-aminopropanamido)cyclohexyl)-5-methoxypyrazine-2-carboxamide]
> 100 µM | Cn1ncc2ccc(C(=O)N[C@H]3CC[C@H](NC(=O)CCN)CC3)cc21 [compound 325, N-((1r,4r)-4-(3-aminopropanamido)cyclohexyl)-1-methyl-1H-indazole-6-carboxamide]
> 100 µM | Cn1nc(C(C)(C)C)cc1C(=O)N[C@H]1CC[C@H](NC(=O)CCN)CC1 [compound 351, N-((1r,4r)-4-(3-aminopropanamido)cyclohexyl)-3-(tert-butyl)-1-methyl-1H-pyrazole-5-carboxamide]
> 100 µM | Cc1nscc1C(=O)N[C@H]1CC[C@H](N)CC1 [compound 348, N-((1r,4r)-4-aminocyclohexyl)-3-methylisothiazole-4-carboxamide]

Same assay, conditions: read-out: SMYD3 Biochem IC50 (μM)*

IC50 | SMILES
> 100 µM | NCCC(=O)N[C@H]1CC[C@H](NC(=O)c2nccnc2N)CC1 [compound 152, 3-amino-N-((1r,4r)-4-(3-aminopropanamido)cyclohexyl)pyrazine-2-carboxamide]
108 µM | Nc1ccc(C(=O)N[C@H]2CC[C@H](N)CC2)cn1 [compound 123, 6-amino-N-((1r,4r)-4-aminocyclohexyl)nicotinamide]
89.3 µM | N[C@H]1CC[C@H](NC(=O)c2ccc3c(c2)NC(=O)C3)CC1 [compound 71, N-((1r,4r)-4-aminocyclohexyl)-2-oxoindoline-6-carboxamide]
20.5 µM | CCc1ccnc(C(=O)N[C@H]2CC[C@H](N)CC2)c1 [compound 38, N-((1r,4r)-4-aminocyclohexyl)-4-ethylpicolinamide]
> 100 µM | CC(=O)Nc1ccc(S(=O)(=O)N2CCC(NC(=O)c3cccnc3)CC2)cc1 [compound 3, N-(1-((4-acetamidophenyl)sulfonyl)piperidin-4-yl)nicotinamide]
128 µM | CCc1nc(C(=O)N[C@H]2CC[C@H](N)CC2)co1 [compound 16, N-((1r,4r)-4-aminocyclohexyl)-2-ethyloxazole-4-carboxamide]
60.9 µM | CC(=O)c1c[nH]c(C(=O)Nc2ccc(CN)cc2)c1 [compound 66, 4-acetyl-N-(4-(aminomethyl)phenyl)-1H-pyrrole-2-carboxamide]
45.9 µM | CC(=O)Nc1ccc(S(=O)(=O)N2CCC(NC(=O)C3CCN(CC4CC4)CC3)CC2)cc1 [compound 12, N-(1-((4-acetamidophenyl)sulfonyl)piperidin-4-yl)-1-(cyclopropylmethyl)piperidine-4-carboxamide]
82.8 µM | Cc1cc2[nH]c(C(=O)NC(c3ccccc3)C3CCNCC3)cc2o1 (stereo not drawn) [compound 110, 2-methyl-N-(phenyl(piperidin-4-yl)methyl)-4H-furo[3,2-b]pyrrole-5-carboxamide]
56.6 µM | CCn1cnc(C(=O)N[C@H]2CC[C@H](N)CC2)c1 [compound 15, N-((1r,4r)-4-aminocyclohexyl)-1-ethyl-1H-imidazole-4-carboxamide]
116 µM | CCc1ccc(C(=O)NC(c2ccccc2)C2CCNCC2)s1 (stereo not drawn) [compound 55, 5-ethyl-N-(phenyl(piperidin-4-yl)methyl)thiophene-2-carboxamide]
23.9 µM | O=C1CNc2cc(C(=O)NC3CCNCC3)ccc2N1 [compound 39, 2-oxo-N-(piperidin-4-yl)-1,2,3,4-tetrahydroquinoxaline-6-carboxamide]
20.7 µM | N[C@H]1CC[C@H](NC(=O)c2ccc3cnccc3c2)CC1 [compound 166, N-((1r,4r)-4-aminocyclohexyl)isoquinoline-6-carboxamide]
> 100 µM | CC(=O)Nc1ccc(S(=O)(=O)N2CCC(NC(=O)c3ccnn3C)CC2)cc1 [compound 7, N-(1-((4-acetamidophenyl)sulfonyl)piperidin-4-yl)-1-methyl-1H-pyrazole-5-carboxamide]
